The source of these data is patent US20050214375A1, “Process for producing block copolymer/drug composite” (priority 2002, published 2005).

SMILES strings stand for the structures. Where a name gives a salt, the structure may show the parent alone. Read-outs that look alike come from different tables or passages of the source.

The data set concerns Colon 26 adenocarcinoma cells. As to conditions: intravenous; for T/C (%) volume ratio of tumor against control groups 14 days after administration: CDF1 female mouse, Colon 26. The protocol:
Colon 26 adenocarcinoma cells were transplanted subcutaneously in the subaxillary region of each CDF1 female mouse. When the volume of the tumor reached around 100 mm^3, the block copolymer-drug composite obtained in Example 1 or doxorubicin hydrochloride was administered intravenously. […] The antitumor effect of the drug was judged from the number of mice showing disappearance of tumor (cured) 60 days after transplantation and the tumor proliferation inhibition ratio 14 days after administration.

Take `COc1cccc2c1C(=O)c1c(O)c3c(c(O)c1C2=O)C[C@@](O)(C(=O)CO)C[C@@H]3O[C@H]1C[C@H](N)[C@H](O)[C@H](C)O1` [Doxorubicin hydrochloride, doxorubicin hydrochloride]: under “dose 19.2 mg/kg”, the “Cure/n: number of mice showing cure after 60 days observation period/number in one group” value is reported as 2/10, the “Tox./n: number of mice died with toxicity/number in one group” value (“Tox./n … with toxicity/number in one group” for short) is 0/10 and the “T/C (%) volume ratio of tumor against control groups 14 days after administration” value (“T/C (%) volume ratio of tumor” for short) came out at 13.5%. Further, under “dose 24.0 mg/kg”, the “Cure/n: number of mice showing cure after 60 days observation period/number in one group” value was 4/10, the “Tox./n … with toxicity/number in one group” value is listed as 0/10 and the “T/C (%) volume ratio of tumor” value is reported as 6.4%. In addition, where the note is “dose 30.0 mg/kg”, the “Cure/n: number of mice showing cure after 60 days observation period/number in one group” value is given as 3/10, the “Tox./n … with toxicity/number in one group” value is listed as 1/10 and the “T/C (%) volume ratio of tumor” value is 9.9%.
